# Experimental data published in the supplement of paper PMC10307832.
# Tests used:
# Assay in all cases: relative viability (nuclei count vs DMSO), 5 days (fraction); higher = more cells survive
# HCC-44 = test system: HCC-44
# Procedure, shortened: (§1)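 Lung cancer cell lines, seeded in 1536-well plates, were treated the following day by pin tool with a single drug or with five library-drug doses (not always all listed) in √10 steps on top of a fixed anchor-drug dose. Cells were fixed and nuclei stained in one step after 5 days, and nuclei were counted. Relative viability is the nuclei count for treated wells divided by that for vehicle wells, reported as medians of duplicate plates.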
# PC-3 [JPC-3] = test system: PC-3 [JPC-3]
# Procedure, shortened: as §1
# NCI-H2085 = test system: NCI-H2085
# Procedure, shortened: as §1
# SW 1573 = test system: SW 1573
# Procedure, shortened: as §1
# BEN = test system: BEN
# Procedure, shortened: as §1
# LCLC-97TM1 = test system: LCLC-97TM1
# Procedure, shortened: as §1
# EPLC-272H = test system: EPLC-272H
# Procedure, shortened: as §1
# NCI-H2087 = test system: NCI-H2087
# Procedure, shortened: as §1
# H3255 = test system: H3255
# Procedure, shortened: as §1
# NCI-H1437 = test system: NCI-H1437
# Procedure, shortened: as §1
# NCI-H647 = test system: NCI-H647
# Procedure, shortened: as §1
# NCI-H358 = test system: NCI-H358
# Procedure, shortened: as §1
# NCI-H1666 = test system: NCI-H1666
# Procedure, shortened: as §1
# LOU-NH91 = test system: LOU-NH91
# Procedure, shortened: as §1
# HOP-62 = test system: HOP-62
# Procedure, shortened: as §1
# HCC-827 = test system: HCC-827
# Procedure, shortened: as §1
# COR-L 105 = test system: COR-L 105
# Procedure, shortened: as §1
# 201T = test system: 201T
# Procedure, shortened: as §1
# NCI-H1975 = test system: NCI-H1975
# Procedure, shortened: as §1
# NCI-H1395 = test system: NCI-H1395
# Procedure, shortened: as §1
# EKVX = test system: EKVX
# Procedure, shortened: as §1
# NCI-H2126 = test system: NCI-H2126
# Procedure, shortened: as §1
# LU99A = test system: LU99A
# Procedure, shortened: as §1
smiles,measurement,setting,value
COc1cc(N2CCC(C(N)=O)CC2)ccc1Nc1nc(N)c(Cl)c(Nc2ccccc2S(=O)(=O)C(C)C)n1 [HG-5-88-01] + Cc1nc(NC(=O)N2CCC[C@H]2C(N)=O)sc1-c1ccnc(C(C)(C)C(F)(F)F)c1 [Alpelisib] (partner 2 µM),relative viability,HCC-44; first compound 0.04 µM,0.858
same,relative viability,HCC-44; first compound 0.1265 µM,0.824
same,relative viability,HCC-44; first compound 0.4 µM,0.701
same,relative viability,HCC-44; first compound 1.265 µM,0.68
same,relative viability,HCC-44; first compound 4 µM,0.471
same,relative viability,PC-3 [JPC-3]; first compound 0.04 µM,0.965
same,relative viability,PC-3 [JPC-3]; first compound 0.1265 µM,1.04
same,relative viability,PC-3 [JPC-3]; first compound 0.4 µM,1
same,relative viability,PC-3 [JPC-3]; first compound 1.265 µM,0.971
same,relative viability,PC-3 [JPC-3]; first compound 4 µM,0.825
same,relative viability,NCI-H2085; first compound 0.04 µM,1.05
same,relative viability,NCI-H2085; first compound 0.1265 µM,1
same,relative viability,NCI-H2085; first compound 0.4 µM,0.908
same,relative viability,NCI-H2085; first compound 1.265 µM,0.973
same,relative viability,NCI-H2085; first compound 4 µM,0.902
same,relative viability,SW 1573; first compound 0.04 µM,0.866
same,relative viability,SW 1573; first compound 0.1265 µM,0.571
same,relative viability,SW 1573; first compound 0.4 µM,0.866
same,relative viability,SW 1573; first compound 1.265 µM,0.632
same,relative viability,SW 1573; first compound 4 µM,0.605
same,relative viability,BEN; first compound 0.04 µM,0.948
same,relative viability,BEN; first compound 0.1265 µM,1.03
same,relative viability,BEN; first compound 0.4 µM,1.04
same,relative viability,BEN; first compound 1.265 µM,0.853
same,relative viability,BEN; first compound 4 µM,1.15
same,relative viability,LCLC-97TM1; first compound 0.04 µM,0.264
same,relative viability,LCLC-97TM1; first compound 0.1265 µM,0.217
same,relative viability,LCLC-97TM1; first compound 0.4 µM,0.198
same,relative viability,LCLC-97TM1; first compound 1.265 µM,0.196
same,relative viability,LCLC-97TM1; first compound 4 µM,0.142
same,relative viability,EPLC-272H; first compound 0.04 µM,0.931
same,relative viability,EPLC-272H; first compound 0.1265 µM,0.838
same,relative viability,EPLC-272H; first compound 0.4 µM,1.12
same,relative viability,EPLC-272H; first compound 1.265 µM,0.804
same,relative viability,EPLC-272H; first compound 4 µM,0.253
same,relative viability,NCI-H2087; first compound 0.04 µM,0.967
same,relative viability,NCI-H2087; first compound 0.1265 µM,1.17
same,relative viability,NCI-H2087; first compound 0.4 µM,0.997
same,relative viability,NCI-H2087; first compound 1.265 µM,1.04
same,relative viability,NCI-H2087; first compound 4 µM,0.974
same,relative viability,H3255; first compound 0.04 µM,0.714
same,relative viability,H3255; first compound 0.1265 µM,0.63
same,relative viability,H3255; first compound 0.4 µM,0.645
same,relative viability,H3255; first compound 4 µM,0.422
same,relative viability,NCI-H1437; first compound 0.04 µM,1.03
same,relative viability,NCI-H1437; first compound 0.1265 µM,1.09
same,relative viability,NCI-H1437; first compound 0.4 µM,0.873
same,relative viability,NCI-H1437; first compound 1.265 µM,0.964
same,relative viability,NCI-H1437; first compound 4 µM,1.02
same,relative viability,NCI-H647; first compound 0.04 µM,1.09
same,relative viability,NCI-H647; first compound 0.1265 µM,1.15
same,relative viability,NCI-H647; first compound 1.265 µM,1.09
same,relative viability,NCI-H647; first compound 4 µM,1.4
same,relative viability,NCI-H358; first compound 0.04 µM,0.845
same,relative viability,NCI-H358; first compound 0.1265 µM,0.692
same,relative viability,NCI-H358; first compound 0.4 µM,0.497
same,relative viability,NCI-H358; first compound 1.265 µM,0.432
same,relative viability,NCI-H358; first compound 4 µM,0.323
same,relative viability,NCI-H1666; first compound 0.04 µM,1
same,relative viability,NCI-H1666; first compound 0.1265 µM,1.02
same,relative viability,NCI-H1666; first compound 0.4 µM,0.816
same,relative viability,NCI-H1666; first compound 1.265 µM,0.706
same,relative viability,NCI-H1666; first compound 4 µM,0.657
same,relative viability,LOU-NH91; first compound 0.04 µM,0.713
same,relative viability,LOU-NH91; first compound 0.1265 µM,0.67
same,relative viability,LOU-NH91; first compound 0.4 µM,0.659
same,relative viability,LOU-NH91; first compound 1.265 µM,0.545
same,relative viability,LOU-NH91; first compound 4 µM,0.528
same,relative viability,HOP-62; first compound 0.04 µM,0.835
same,relative viability,HOP-62; first compound 0.1265 µM,0.924
same,relative viability,HOP-62; first compound 0.4 µM,0.999
same,relative viability,HOP-62; first compound 1.265 µM,0.981
same,relative viability,HOP-62; first compound 4 µM,1.41
same,relative viability,HCC-827; first compound 0.04 µM,1.04
same,relative viability,HCC-827; first compound 0.1265 µM,1.01
same,relative viability,HCC-827; first compound 0.4 µM,1.05
same,relative viability,HCC-827; first compound 1.265 µM,0.849
same,relative viability,HCC-827; first compound 4 µM,0.353
same,relative viability,COR-L 105; first compound 0.04 µM,0.955
same,relative viability,COR-L 105; first compound 0.1265 µM,1.1
same,relative viability,COR-L 105; first compound 0.4 µM,0.971
same,relative viability,COR-L 105; first compound 1.265 µM,0.606
same,relative viability,COR-L 105; first compound 4 µM,0.711
same,relative viability,201T; first compound 0.04 µM,0.99
same,relative viability,201T; first compound 0.1265 µM,1.06
same,relative viability,201T; first compound 0.4 µM,1.06
same,relative viability,201T; first compound 1.265 µM,0.974
same,relative viability,201T; first compound 4 µM,1.09
same,relative viability,NCI-H1975; first compound 0.04 µM,0.597
same,relative viability,NCI-H1975; first compound 0.1265 µM,0.62
same,relative viability,NCI-H1975; first compound 0.4 µM,0.555
same,relative viability,NCI-H1975; first compound 1.265 µM,0.516
same,relative viability,NCI-H1975; first compound 4 µM,0.264
same,relative viability,NCI-H1395; first compound 0.04 µM,1.09
same,relative viability,NCI-H1395; first compound 0.1265 µM,1.06
same,relative viability,NCI-H1395; first compound 0.4 µM,1.1
same,relative viability,NCI-H1395; first compound 1.265 µM,0.909
same,relative viability,NCI-H1395; first compound 4 µM,0.986
same,relative viability,EKVX; first compound 0.04 µM,0.888
same,relative viability,EKVX; first compound 0.1265 µM,0.914
same,relative viability,EKVX; first compound 0.4 µM,0.823
same,relative viability,EKVX; first compound 4 µM,0.814
same,relative viability,NCI-H2126; first compound 0.04 µM,0.81
same,relative viability,NCI-H2126; first compound 0.1265 µM,0.79
same,relative viability,NCI-H2126; first compound 0.4 µM,0.774
same,relative viability,NCI-H2126; first compound 1.265 µM,0.681
same,relative viability,NCI-H2126; first compound 4 µM,0.716
same,relative viability,LU99A; first compound 0.04 µM,0.561
same,relative viability,LU99A; first compound 0.1265 µM,0.514
same,relative viability,LU99A; first compound 0.4 µM,0.513
same,relative viability,LU99A; first compound 1.265 µM,0.552
same,relative viability,LU99A; first compound 4 µM,0.422
